Test results from patent US8952024B2, “Herbicidal pyrimidone derivatives” (E I du Pont de Nemours and Company, priority 2009, dated 2015).

What was measured:
Format in all cases: in vivo
[1] = system: pigweed (Amaranthus retroflexus); test: Test B pre-/postemergence plant response
Summary of the method: (§1)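 Each species received compound formulated in non-phytotoxic solvent with surfactant, either at planting into a loam and sand blend or as a foliar spray once plants reached 2 to 18 cm in peat-based medium. Plants stayed in the greenhouse 13 to 15 days before visual evaluation against controls, scored 0 (no effect) to 100 (complete control).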

[2] = system: cocklebur (Xanthium strumarium); test: Test B pre-/postemergence plant response
Summary of the method: as §1

[3] = system: morningglory (Ipomoea coccinea); test: Test B pre-/postemergence plant response
Summary of the method: as §1

[4] = system: Italian ryegrass (Lolium multiflorum); test: Test B pre-/postemergence plant response
Summary of the method: as §1

[5] = system: downy bromegrass (Bromus tectorum); test: Test B pre-/postemergence plant response
Summary of the method: as §1

[6] = system: giant foxtail (Setaria faberii); test: Test B pre-/postemergence plant response
Summary of the method: as §1

[7] = system: Surinam grass (Brachiaria decumbens); test: Test B pre-/postemergence plant response
Summary of the method: as §1

[8] = system: blackgrass (Alopecurus myosuroides); test: Test B pre-/postemergence plant response
Summary of the method: as §1

corn (Zea mays) = test: Test B pre-/postemergence plant response
Summary of the method: as §1

wild oat (Avena fatua) = test: Test B pre-/postemergence plant response
Summary of the method: as §1

[9] = system: canarygrass (Phalaris minor); test: Test B postemergence plant response
Summary of the method: (§2)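 Plants grown in peat/vermiculite medium were sprayed postemergence at 2–18 cm height (1- to 4-leaf stage). After 13–15 days in the greenhouse, response was rated visually against untreated controls on a 0–100 scale (0 no effect, 100 complete control).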

[10] = system: chickweed (Stellaria media); test: Test B postemergence plant response
Summary of the method: as §2

[11] = system: windgrass (Apera spica-venti); test: Test B postemergence plant response
Summary of the method: as §2

[12] = 250 g ai/ha, Preemergence, 0 to 100 scale
[13] = Postemergence, 31 g ai/ha, scale 0 to 100 (0 no effect, 100 complete control)
[14] = Postemergence, 62 g ai/ha, scale 0 (no effect) to 100 (complete control), 13 to 15 days
[15] = Postemergence, 125 g ai/ha, visual rating after 13 to 15 days, scale 0 (no effect) to 100 (complete control)
[16] = Postemergence, 250 g ai/ha, scale 0 to 100
[17] = Preemergence, 31 g ai/ha, scale 0 to 100 (0 no effect, 100 complete control)
[18] = Preemergence, 62 g ai/ha, scale 0 to 100 (0 no effect, 100 complete control)
[19] = Preemergence, 125 g ai/ha, 0 to 100 scale
[20] = 62 g ai/ha, postemergence, 0 is no effect, 100 is complete control, 13 to 15 days
[21] = Postemergence, 31 g ai/ha, 0 to 100 scale (0 no effect, 100 complete control)
[22] = Postemergence, 125 g ai/ha, scale 0 to 100 (0 no effect, 100 complete control)
[23] = Postemergence, 250 g ai/ha, scale 0 to 100 (0 no effect, 100 complete control), 13 to 15 days

Cc1ccccc1-n1c(-c2ccccc2)ncc(C(=O)C2=C(O)CCCC2=O)c1=O [Compound 12]
Plant response rating, Pigweed [1, 12]: 100
Plant response rating, Pigweed [1, 13]: 95
Plant response rating, Pigweed [1, 14]: 95
Plant response rating, Pigweed [1, 15]: 98
Pigweed plant response rating [1, 16]: 100
Plant response rating, Pigweed [1, 17]: 100
Plant response rating, Pigweed [1, 18]: 100
Pigweed plant response rating [1, 19]: 100
Plant response rating, Cocklebur [2, 12]: 100
Plant response rating, Cocklebur [2, 13]: 70
Plant response rating, Cocklebur [2, 14]: 98
Plant response rating, Cocklebur [2, 15]: 100
Cocklebur plant response rating [2, 16]: 100
Plant response rating, Cocklebur [2, 17]: 25
Plant response rating, Cocklebur [2, 18]: 80
Cocklebur plant response rating [2, 19]: 98
Plant response rating, Morningglory [3, 12]: 100
Plant response rating, Morningglory [3, 13]: 15
Plant response rating, Morningglory [3, 14]: 60
Plant response rating, Morningglory [3, 15]: 70
Morningglory plant response rating [3, 16]: 95
Plant response rating, Morningglory [3, 17]: 40
Plant response rating, Morningglory [3, 18]: 55
Morningglory plant response rating [3, 19]: 85
Plant response rating, Ryegrass, Italian [4, 12]: 0
Plant response rating, Ryegrass, Italian [4, 13]: 0
Plant response rating, Ryegrass, Italian [4, 14]: 0
Plant response rating, Ryegrass, Italian [4, 15]: 5
Ryegrass, Italian plant response rating [4, 16]: 5
Plant response rating, Ryegrass, Italian [4, 17]: 0
Plant response rating, Ryegrass, Italian [4, 18]: 0
Ryegrass, Italian plant response rating [4, 19]: 0
Plant response rating, Bromegrass, Downy [5, 12]: 0
Plant response rating, Bromegrass, Downy [5, 13]: 5
Plant response rating, Bromegrass, Downy [5, 14]: 10
Plant response rating, Bromegrass, Downy [5, 15]: 20
Bromegrass, Downy plant response rating [5, 16]: 20
Plant response rating, Bromegrass, Downy [5, 17]: 0
Plant response rating, Bromegrass, Downy [5, 18]: 0
Bromegrass, Downy plant response rating [5, 19]: 0
Plant response rating, Foxtail, Giant [6, 12]: 100
Plant response rating, Foxtail, Giant [6, 13]: 75
Plant response rating, Foxtail, Giant [6, 14]: 90
Plant response rating, Foxtail, Giant [6, 15]: 98
Foxtail, Giant plant response rating [6, 16]: 98
Plant response rating, Foxtail, Giant [6, 17]: 0
Plant response rating, Foxtail, Giant [6, 18]: 20
Foxtail, Giant plant response rating [6, 19]: 70
Plant response rating, Surinam Grass [7, 12]: 100
Plant response rating, Surinam Grass [7, 13]: 25
Plant response rating, Surinam Grass [7, 14]: 55
Plant response rating, Surinam Grass [7, 15]: 65
Surinam Grass plant response rating [7, 16]: 85
Plant response rating, Surinam Grass [7, 17]: 35
Plant response rating, Surinam Grass [7, 18]: 60
Surinam Grass plant response rating [7, 19]: 95
Plant response rating, Blackgrass [8, 12]: 10
Plant response rating, Blackgrass [8, 13]: 10
Plant response rating, Blackgrass [8, 14]: 10
Plant response rating, Blackgrass [8, 15]: 10
Blackgrass plant response rating [8, 16]: 20
Plant response rating, Blackgrass [8, 17]: 0
Plant response rating, Blackgrass [8, 18]: 0
Blackgrass plant response rating [8, 19]: 5
Plant response rating, Corn (corn (Zea mays); [12]): 75
Plant response rating, Corn (corn (Zea mays); [13]): 25
Plant response rating, Corn (corn (Zea mays); [14]): 30
Plant response rating, Corn (corn (Zea mays); [15]): 45
Corn plant response rating (corn (Zea mays); [16]): 75
Plant response rating, Corn (corn (Zea mays); [17]): 0
Plant response rating, Corn (corn (Zea mays); [18]): 0
Corn plant response rating (corn (Zea mays); [19]): 15
Plant response rating, Oat, Wild (wild oat (Avena fatua); [12]): 5
Plant response rating, Oat, Wild (wild oat (Avena fatua); [13]): 0
Plant response rating, Oat, Wild (wild oat (Avena fatua); [14]): 5
Plant response rating, Oat, Wild (wild oat (Avena fatua); [15]): 20
Oat, Wild plant response rating (wild oat (Avena fatua); [16]): 20
Plant response rating, Oat, Wild (wild oat (Avena fatua); [17]): 0
Plant response rating, Oat, Wild (wild oat (Avena fatua); [18]): 0
Oat, Wild plant response rating (wild oat (Avena fatua); [19]): 0
Plant response rating, Canarygrass [9, 13]: 0
Plant response rating, Canarygrass [9, 14]: 5
Plant response rating, Canarygrass [9, 15]: 5
Canarygrass plant response rating [9, 16]: 40
Plant response rating, Chickweed [10, 13]: 100
Plant response rating, Chickweed [10, 14]: 100
Plant response rating, Chickweed [10, 15]: 100
Chickweed plant response rating [10, 16]: 100
Plant response rating, Windgrass [11, 13]: 10
Plant response rating, Windgrass [11, 14]: 40
Plant response rating, Windgrass [11, 15]: 45
Windgrass plant response rating [11, 16]: 50

CCCn1c(-c2cccc(Br)c2)ncc(C(=O)C2=C(O)CCCC2=O)c1=O [Compound 141]
Pigweed plant response rating (0 to 100 scale) [1, 20]: 75
Plant response rating, Pigweed [1, 21]: 60
Plant response rating, Pigweed [1, 22]: 95
Plant response rating, Pigweed [1, 23]: 98
Cocklebur plant response rating (0 to 100 scale) [2, 20]: 65
Plant response rating, Cocklebur [2, 21]: 40
Plant response rating, Cocklebur [2, 22]: 95
Plant response rating, Cocklebur [2, 23]: 100
Morningglory plant response rating (0 to 100 scale) [3, 20]: 60
Plant response rating, Morningglory [3, 21]: 60
Plant response rating, Morningglory [3, 22]: 60
Plant response rating, Morningglory [3, 23]: 65
Ryegrass, Italian plant response rating (0 to 100 scale) [4, 20]: 0
Plant response rating, Ryegrass, Italian [4, 21]: 0
Plant response rating, Ryegrass, Italian [4, 22]: 0
Plant response rating, Ryegrass, Italian [4, 23]: 5
Bromegrass, Downy plant response rating (0 to 100 scale) [5, 20]: 5
Plant response rating, Bromegrass, Downy [5, 21]: 0
Plant response rating, Bromegrass, Downy [5, 22]: 10
Plant response rating, Bromegrass, Downy [5, 23]: 45
Foxtail, Giant plant response rating (0 to 100 scale) [6, 20]: 75
Plant response rating, Foxtail, Giant [6, 21]: 75
Plant response rating, Foxtail, Giant [6, 22]: 80
Plant response rating, Foxtail, Giant [6, 23]: 85
Surinam Grass plant response rating (0 to 100 scale) [7, 20]: 65
Plant response rating, Surinam Grass [7, 21]: 40
Plant response rating, Surinam Grass [7, 22]: 70
Plant response rating, Surinam Grass [7, 23]: 75
Blackgrass plant response rating (0 to 100 scale) [8, 20]: 5
Plant response rating, Blackgrass [8, 21]: 5
Plant response rating, Blackgrass [8, 22]: 10
Plant response rating, Blackgrass [8, 23]: 25
Corn plant response rating (0 to 100 scale) (corn (Zea mays); [20]): 45
Plant response rating, Corn (corn (Zea mays); [21]): 0
Plant response rating, Corn (corn (Zea mays); [22]): 45
Plant response rating, Corn (corn (Zea mays); [23]): 45
Oat, Wild plant response rating (0 to 100 scale) (wild oat (Avena fatua); [20]): 10
Plant response rating, Oat, Wild (wild oat (Avena fatua); [21]): 10
Plant response rating, Oat, Wild (wild oat (Avena fatua); [22]): 15
Plant response rating, Oat, Wild (wild oat (Avena fatua); [23]): 40
Canarygrass plant response rating (0 to 100 scale) [9, 20]: 0
Plant response rating, Canarygrass [9, 21]: 0
Plant response rating, Canarygrass [9, 22]: 5
Plant response rating, Canarygrass [9, 23]: 5
Chickweed plant response rating (0 to 100 scale) [10, 20]: 85
Plant response rating, Chickweed [10, 21]: 60
Plant response rating, Chickweed [10, 22]: 90
Plant response rating, Chickweed [10, 23]: 95
Windgrass plant response rating (0 to 100 scale) [11, 20]: 35
Plant response rating, Windgrass [11, 21]: 25
Plant response rating, Windgrass [11, 22]: 40
Plant response rating, Windgrass [11, 23]: 50
